Experimental findings from patent US20220218714A1, “METHOD OF TREATING CANCER” (Epizyme, Inc., priority 2013, published 2022) are described below.

Structures are written as SMILES. “Also recorded” adds a separate entry of the source.

The subject of experiment [1] is PDX of synovial sarcoma tumors. Kind of experiment: Tumor volume in patient-derived xenografts (PDX) of synovial sarcoma, 35 days dosing. The settings on record: two synovial sarcoma PDX; oral 125, 250 or 500/400 mg/kg for 35 days. It is filed as in vivo, athymic nude mice. How it is done:
FIGS. 11A and 11C show mean in vivo tumor volumes for athymic nude mice bearing one of two different PDX of synovial sarcoma tumors. FIGS. 11B and 11D show percent survival for mice bearing a PDX. Mice were dosed with either vehicle (oral for 35 days), Compound A (oral: 125 mg/kg, 250 mg/kg, or 500/400 mg/kg for 35 days) or Doxorubicin (iv: 3 mg/kg, once a week for 3 weeks). FIGS. 11A and 11B show data from mice bearing PDX from high-grade spindle cell sarcoma. FIGS. 11C and 11D show data from mice bearing PDX.
In general terms: A xenograft is tissue or cells of one species grown in another, often human tumour cells in immunodeficient mice.

In the next experiment the test system is HS-SY-II cells. In words: Adherent cell line 14-day long-term proliferation assay (CellTiter-Glo). In kind it is cell-based, human. How it is done:
(§1) 96-well plating for 7 day assay: For each adherent cell line, plated cells in a volume of 100 μL in 96-well plates, to be treated in triplicate, either in the evening (to treat with compound the following day) or in morning (to treat with compound in the evening), to allow cells to attach to plates before compound treatment.
(§2) 6-well plates to be split for 7-14 day assay: Plated 2mL of cells at the correct density in each well of the 6-well plate. Calculated the correct density from the 96-well plate growth curve by multiplying the 96-well density by 30. The factor 30 came from growth area of the 6-well plate divided by the growth area of the 96-well plate (9.5cm^2/0.32cm^2=29.7, rounded up to 30), which corresponds to 30-fold more surface area in a 6-well vs. a 96-well plate.
(§3) Day 0: Treated with compound or DMSO by removing media and adding back either […] (for 96-well plate) or 2 mL (for 6-well plate) media with the correct dilutions of compound/DMSO. Table 1 includes an example of 96-well plate map. Plates were incubated for 96 hours.
(§4) Read one 96-well plate with CellTiter-Glo®, for a Day 0 reading (media change not necessary for this plate).
(§5) Day 4: Read one 96-well plate with CellTiter-Glo® for a Day 4 reading (media change not necessary for this plate before reading). Replaced media with fresh media containing compound on Day 4 in 96-well plates and 6-well plates.
(§6) Day 7: read final 96-well plate with CellTiter-Glo®.
(§7) Counted individual wells of 6-well plates, and replated cells to initial plating density in 96-well plates, as described above.
(§8) Repeated steps for Days 0-7 for Days 7-14 of the proliferation assay.
(§9) Particularly, approximately 12 hours before compound treatment, HS-SY-II or SW982 cells were plated at the density of 24,000 cells/well and 7,500 cells/well, respectively in 6-well plates. On day 0, cells were treated with either DMSO or compound starting at 10 μmol/L and decreasing in fourfold dilutions. On day 7, the cells in 6-well plates were trypsinized, counted by TC10 automated cell counter (Bio-Rad, Richmond, Calif.) and replated at the density of 800 cells/well and 250 cells/well for HS-SY-II and SW982, respectively in 96-well plates in triplicate. The cells were allowed to adhere to the plate overnight, and treated with either DMSO or compound as on Day 0. On days 0, 7, 11, and 14, cell viability was determined by CellTiter-Glo® Luminescent Cell Viability Assay (Promega) with EnVision 2103 Multilabel Reader (Perkin-Elmer, Wellesley, Mass.). Compound/media was changed with new one on Day 4 and 11. The ratios of the measured values on Days 7, 11, and 14 to that of day 7 were used to plot proliferation from day 7 to day 14, and to calculate the IC50 values on Day 14. […]
A general note: ATP-based viability assays read luminescence as a measure of living cells.

A further experiment relates to SW982 cells. Described as above. In kind it is cell-based, human. How it is done:
as §1, §2, §3, §4, §5, §6, §7, §8, §9

The test system of the next experiment is H3K27me3 in SW982 cells. In words: H3K27 methylation alterations, ELISA of extracted histones. Conditions: 96 hours treatment. In kind it is cell-based, human. How it is done: (§10) HS-SY-II and SW982 cells were treated with either DMSO or Compound A starting at 40 nmol/L and decreasing in fourfold dilutions for 96 hours. Cells were washed by ice cold PBS, harvested by cell scraper, and lysed with 100 μL of nuclear extraction buffer (10 mM Tris-HCl, 10 mM MgCl2, 25 mM KCl, 1% Triton X-100, 8.6% Sucrose, plus × Halt Protease inhibitor cocktail (1861281, Thermo Scientific). Nuclei were collected by centrifugation at 600 g for 5 minutes at 4° C. and washed once with ice cold PBS. Supernatant was removed and histones extracted for one hour with 100 μL of 0.4 N cold sulfuric acid. Extracts were clarified by centrifugation at 10,000 g for 10 minutes at 4° C. and transferred to a fresh microcentrifuge tube containing 1 mL of ice cold acetone. Histones were precipitated at −20° C. for overnight, pelleted by centrifugation at 10,000 g for 10 minutes and resuspended in 100 μl of water. Histones were quantified using the BCA protein assay (23225, Pierce). The diluted histones were coated on Immulon 4HBX plates (3855, Thermo Scientific) overnight and ELISA was performed. […] Subsequently, the developed colors in the wells were measured using a plate spectrophotometer (SpectraMax 250, Molecular Devices) at 450 nm (reference wavelength 650 nm).
(§11) The range of ICso values (two independent experiments), shown in FIG. 6B, were determined by GraphPad Prism (GraphPad Software).
Background: ELISA stands for enzyme-linked immunosorbent assay.

Experiment [2] has as its system H3K27me3 in HS-SY-II cells. The description is as above. It is filed as cell-based, human. The settings on record: 96 hours treatment. How it is done: as §10, §11

In the case of `CCN(c1cc(-c2ccc(CN3CCOCC3)cc2)cc(C(=O)NCc2c(C)cc(C)[nH]c2=O)c1C)C1CCOCC1` [Compound A], in experiment [1], the tumor volume entry is given as “dose-related tumor volume decrease”. For the same molecule, the “sensitivity (cell proliferation / viability)” value with HS-SY-II cells is on record as “high sensitivity; also recorded: highly sensitive”; in the experiment on SW982 cells, “did not; also recorded: not sensitive”. The “ratio of H3K27me3/total H3 (ratio to control)” value (in the experiment on H3K27me3 in SW982 cells; in experiment [2]) was “decreased” throughout.
